Each molecule was assayed against T1, human V1a receptor (Homo sapiens, UniProt P37288) (assay: human V1a receptor binding (3H-Vasopressin SPA, membranes of transfected HEK293 cells)). Details: displacement of 3H-Vasopressin; Ki calculated from IC50 using the Cheng-Prussoff equation.
T1 construct: expressed in transfected cells; host or cells: HEK293 cells, transiently transfected; membrane preparation
Description: The human V1a receptor was cloned by RT-PCR from total human liver RNA. The coding sequence was subcloned in an expression vector after sequencing to confirm the identity of the amplified sequence. […] Cell membranes were prepared from HEK293 cells transiently transfected with the expression vector and grown in 20 liter fermenters with the following protocol.
50 g of cells were resuspended in 30 ml freshly prepared ice cold Lysis buffer (50 mM HEPES, 1 mM EDTA, 10 mM MgCl2 adjusted to pH=7.4+complete cocktail of protease inhibitor (Roche Diagnostics)), homogenized with Polytron for 1 min, and sonicated on ice for 2×2 minutes at 80% intensity (Vibracell sonicator). The preparation was centrifuged 20 min at 500 g at 4° C., the pellet was discarded, and the supernatant centrifuged 1 hour at 43'000 g at 4° C. (19'000 rpm). The pellet was resuspended in 12.5 ml Lysis buffer+12.5 ml Sucrose 20% and homogenized using a Polytron for 1-2 min. The protein concentration was determined by the Bradford method and aliquots were stored at −80° C. until use. For binding studies, 60 mg Yttrium silicate SPA beads (Amersham) were mixed with an aliquot of membrane in binding buffer (50 mM Tris, 120 mM NaCl, 5 mM KCl, 2 mM CaCl2, 10 mM MgCl2) for 15 minutes with mixing. 50 ul of bead/membrane mixture was then added to each well of a 96 well plate, followed by 50 ul of 4 nM 3H-Vasopressin (American Radiolabeled Chemicals). For total binding measurement 100 ul of binding buffer were added to the respective wells, for non-specific binding 100 ul of 8.4 mM cold vasopressin were added, and for compound testing 100 ul of a serial dilution of each compound in 2% DMSO were added. The plate was incubated Ih at room temperature, centrifuged 1 min at 1000 g and counted on a Packard Top-Count. Non-specific binding counts were subtracted from each well and data was normalized to the maximum specific binding set at 100%. To calculate an IC 50, the curve was fitted using a non-linear regression model (XLfit) and the Ki was calculated using the Cheng-Prussoff equation.

T1 sequence (P37288 whole entry): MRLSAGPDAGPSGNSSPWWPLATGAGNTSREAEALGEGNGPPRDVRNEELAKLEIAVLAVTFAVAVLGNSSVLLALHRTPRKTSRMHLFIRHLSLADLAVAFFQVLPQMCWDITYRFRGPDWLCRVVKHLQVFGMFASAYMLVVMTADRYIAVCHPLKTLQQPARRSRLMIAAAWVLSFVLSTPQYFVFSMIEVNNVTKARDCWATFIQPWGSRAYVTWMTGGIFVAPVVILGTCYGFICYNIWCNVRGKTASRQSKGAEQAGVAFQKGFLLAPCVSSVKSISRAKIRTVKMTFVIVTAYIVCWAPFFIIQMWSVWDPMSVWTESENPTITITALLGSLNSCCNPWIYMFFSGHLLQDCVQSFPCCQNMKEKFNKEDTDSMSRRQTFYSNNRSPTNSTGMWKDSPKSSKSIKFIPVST

**Q.** With CCOC(=O)Cc1c(C(=O)N2CCC(n3c(=O)[nH]c4ccccc43)CC2)[nH]c2ccccc12 [Example 14, {2-[4-(2-Oxo-2,3-dihydro-benzoimidazol-1-yl)-piperidine-1-carbonyl]-1H-indol-3-yl}-acetic acid ethyl ester] as the molecule, how does the Ki read?
**A.** 41.7 nM

**Q.** With N#CCc1cc(Cl)cc2cc(C(=O)N3CCC(n4c(=O)[nH]c5ccccc54)CC3)[nH]c12 [Example 46, {5-Chloro-2-[4-(2-oxo-2,3-dihydro-benzoimidazol-1-yl)-piperidine-1-carbonyl]-1H-indol-7-yl}-acetonitrile] as the molecule, how does the Ki read?
**A.** 35.5 nM

**Q.** O=C(c1cc2cc(Cl)ccc2[nH]1)N1CCC(N2C(=O)Cc3ccccc32)CC1 [Example 47, 1-[1-(5-Chloro-1H-indole-2-carbonyl)-piperidin-4-yl]-1,3-dihydro-indol-2-one] was tested. Which Ki did it give?
**A.** 64.6 nM

**Q.** For COc1ccc2[nH]c(C(=O)N3CCC(n4c(=O)[nH]c5ccccc54)CC3)c(NC(=O)c3ccccc3[N+](=O)[O-])c2c1 [Example 10, N-{5-Methoxy-2-[4-(2-oxo-2,3-dihydro-benzoimidazol-1-yl)-piperidine-1-carbonyl]-1H-indol-3-yl}-2-nitro-benzamide], which Ki is on record?
**A.** 20 nM

**Q.** For O=C(c1cc2cc(Cl)ccc2[nH]1)N1CCC(n2nnc3ccccc32)CC1 [Example 48, (4-Benzotriazol-1-yl-piperidin-1-yl)-(5-chloro-1H-indol-2-yl)-methanone], which Ki is on record?
**A.** 385 nM

**Q.** Cc1ccc2[nH]c(C(=O)N3CCC(n4c(=O)[nH]c5ccccc54)CC3)c(NC(=O)c3ccc(F)cc3)c2c1 [Example 11] was tested. Which Ki did it give?
**A.** 39.8 nM

**Q.** O=C(c1cc2cccc(OCc3ccccc3)c2[nH]1)N1CCC(n2c(=O)[nH]c3ccccc32)CC1 [Example 37, 1-[1-(7-Benzyloxy-1H-indole-2-carbonyl)-piperidin-4-yl]-1,3-dihydro-benzoimidazol-2-one] was tested. Which Ki did it give?
**A.** 21.9 nM

**Q.** With N#CCn1c(C(=O)N2CCC(n3c(=O)[nH]c4ccccc43)CC2)cc2cc(Cl)ccc21 [Example 45, {5-Chloro-2-[4-(2-oxo-2,3-dihydro-benzoimidazol-1-yl)-piperidine-1-carbonyl]-indol-1-yl}-acetonitrile] as the molecule, how does the Ki read?
**A.** 32 nM

**Q.** Which Ki does the source give for N#CCn1c(C(=O)N2CCC(n3c(=O)[nH]c4ccccc43)CC2)cc2cc(Br)ccc21 [Example 3, {5-Bromo-2-[4-(2-oxo-2,3-dihydro-benzoimidazol-1-yl)-piperidine-1-carbonyl]-indol-1-yl}-acetonitrile] here?
**A.** 12 nM

Reference: patent US20080139617A1 (priority 2006, published 2008)
